Laboratory results taken from EPA's ToxValDB 9.5.

Tests used:
Rattus norvegicus [1] = conditions: short-term, duration: 28 days, oral, gavage, Crl:CD(SD)
Rattus norvegicus [2] = tested on: Rattus norvegicus
Rattus norvegicus [3] = conditions: oral
[4] = F, Kidney: Kidney, Right, Pelvis, Dilation + Liver: Liver Weight, Relative + Liver: Liver, Large
[5] = F, Whole Body: Clinical Observations
[6] = M, Liver: Hepatocellular Hypertrophy + Liver: Liver Weight, Relative + Liver: Liver, Large
[7] = short-term, duration: 4 weeks, oral, gavage, F, Sprague-Dawley
[8] = short-term, duration: 4 weeks, oral, gavage, M, Sprague-Dawley
[9] = short-term, duration: 28 days, gavage, M, Sprague-Dawley, Clinical Observation: Locomotor activity decrease, Staining around nose and mouth Salivation + Functional Observational Battery: Motor …
[10] = chronic, duration: 92 days, gavage, M/F, Fischer 344, Histopathology: Liver-Proliferation of smooth endoplasmic reticulum, parenchymal cell (Electron-microscopic examination) Liver-Decrease in …
[11] = short-term, duration: 28 days, gavage, F, Sprague-Dawley, Clinical Observation: Soft stool + Body Weight Changes: decrease, Gain decrease + Urinalysis: Protein increasep H decrease + Blood Chemistry…
[12] = short-term, duration: 28 days, gavage, M, Sprague-Dawley, Clinical Observation: Soft stool + Body Weight Changes: decrease, Gain decrease + Urinalysis: Protein increasep H decrease + Blood Chemistry…
[13] = subchronic, gavage, Sprague-Dawley
[14] = short-term, duration: 28 days, gavage, M, Sprague-Dawley, Clinical Observation: Salivation Spontaneous locomotion decrease, Respiratory rate decrease

CCC(F)(F)C(F)(F)C(F)(F)C(F)(F)C(F)(F)C(F)(F)F [1-(Perfluorohexyl)ethane]
NOAEL (Rattus norvegicus [1]; F, Adrenal: Adrenal Gland Histopathology + Adrenal: Adrenal Gland Weight, Absolute + Adrenal: Adrenal Gland Weight, Relative + Bladder: Urinary…): 200 mg/kg-day
LOAEL (Rattus norvegicus [1]; [4]): 200 mg/kg-day
NOAEL (Rattus norvegicus [1]; [4]): 40 mg/kg-day
LOAEL (Rattus norvegicus [1]; [5]): 40 mg/kg-day
NOAEL (Rattus norvegicus [1]; [5]): 8 mg/kg-day
NOAEL (Rattus norvegicus [1]; M, Adrenal: Adrenal Gland Histopathology + Adrenal: Adrenal Gland Weight, Absolute + Adrenal: Adrenal Gland Weight, Relative + Blood: Activated…): 200 mg/kg-day
LOAEL (Rattus norvegicus [1]; [6]): 200 mg/kg-day
NOAEL (Rattus norvegicus [1]; [6]): 40 mg/kg-day

CCCCCCCCCCCCCCCCCC(=O)[O-].CCCCCCCCCCCCCCCCCC(=O)[O-].[Ca+2] [Calcium stearate]
NOAEL (Rattus norvegicus [2]; subchronic, duration: 13 weeks, dermal, non-occlusive, F, Sprague-Dawley): 2000 mg/kg-day
NOAEL (Rattus norvegicus [2]; subchronic, duration: 13 weeks, dermal, non-occlusive, M, Sprague-Dawley): 2000 mg/kg-day
NOAEL (Rattus norvegicus [3]; short-term, duration: 28 days, gavage, M, Sprague-Dawley, Urinalysis: Bilirubin increase + Absolute Organ Weight: Spleen increase): 2000 mg/kg-day

C=C(C)C [Isobutene]
NOAEL (Rattus norvegicus [2]; reproduction developmental, duration: 17 days, inhalation, F, Wistar): 18400 mg/m3
LOAEL (Rattus norvegicus [2]; [7]): 149 mg/kg-day
NOAEL (Rattus norvegicus [2]; [7]): 14.9 mg/kg-day
LOAEL (Rattus norvegicus [2]; [8]): 149 mg/kg-day
NOAEL (Rattus norvegicus [2]; [8]): 14.9 mg/kg-day
NOAEL (Rattus norvegicus [2]; subchronic, duration: 13 weeks, inhalation, F, Sprague-Dawley): 18400 mg/m3
NOAEL (Rattus norvegicus [2]; subchronic, duration: 13 weeks, inhalation, M, Sprague-Dawley): 18400 mg/m3
NOAEL (Rattus norvegicus [3]; short-term, duration: 28 days, gavage, Sprague-Dawley): 149 mg/kg-day

O=NN1CN2CN(C1)CN(N=O)C2 [N,N-Dinitrosopentamethylenetetramine]
NOAEL (Rattus norvegicus [3]; [9]): < 40 mg/kg-day
NOEL (Rattus norvegicus [3]; [9]): < 40 mg/kg-day

CC(=O)Nc1ccccc1 [N-Acetylaminobenzene]
NOAEL (Rattus norvegicus [3]; subchronic, duration: 30 days, gavage, M, Sprague-Dawley, Clinical Observation: Decreased locomotor activity Reddish Tear SalivationCyanosis + Hematology: HGB decrease, HCT decrease, MCHC decrease…): < 22 mg/kg-day

CC1OC(C)OC(C)O1 (configuration not stated) [Paraldehyde]
NOEL (Rattus norvegicus [3]; short-term, duration: 28 days, gavage, M/F, Sprague-Dawley, Clinical Observation: Locomotor activity decrease + Functional Observational Battery: Width of straddle increase + Relative Organ Weight: …): 100 mg/kg-day

CC1(C)S[C@@H]2[C@H](NC(=O)COc3ccccc3)C(=O)N2[C@H]1C(=O)[O-].[K+] [Penicillin VK]
NOEL (Rattus norvegicus [3]; subchronic, duration: 13 weeks, gavage, M/F, Fischer 344, Clinical Observation: Diarrhea + Body Weight Changes: decrease + Histopathology: Stomach/glandular-Mucous cell metaplasia): 370 mg/kg-day

Oc1cccc(Br)c1 [Phenol, 3-bromo-]
NOEL (Rattus norvegicus [3]; short-term, duration: 28 days, gavage, M/F, Sprague-Dawley, Clinical Observation: Salivation + Body Weight Changes: Weight gain decrease + Water Consumption: increase + Urinalysis: Volume increase + …): 300 mg/kg-day

CCC1(c2ccccc2)C(=O)NCNC1=O [Primidone]
NOEL (Rattus norvegicus [3]; chronic, duration: 14 weeks, diet, M/F, Fischer 344, Body Weight Changes: decrease + Hematology: Plt increase, Hgb decrease, WBC increase, Lympho increase + Blood Chemistry: Blood cemistry', '…): < 23.4 mg/kg-day

Oc1cccc(O)c1 [Resorcinol]
NOEL (Rattus norvegicus [3]; subchronic, duration: 13 weeks, gavage, M/F, Fischer 344, Deaths + Clinical Observation: Tremor + Blood Chemistry: Ch E decrease + Absolute Organ Weight: Adrenal increase + Relative Organ Weight: …): < 32 mg/kg-day

C=C1C/C(=C/C)C(=O)O[C@@H]2CCN3CC=C(COC(=O)[C@@]1(O)CO)[C@H]23 [Riddelliine]
NOEL (Rattus norvegicus [3]; subchronic, gavage, M/F, Fischer 344, Deaths + Body Weight Changes: decrease + Hematology: Ret increase Hct increase Hgb increase RBC increase Plt decrease, WBC increase Lymph …): < 0.1 mg/kg-day

CN(C)C(=O)c1nc(CNC(=O)CN)n(-c2ccc(Cl)cc2C(=O)c2ccccc2Cl)n1.Cl [Rilmazafone hydrochloride]
NOAEL (Rattus norvegicus [3]; [10]): 25 mg/kg-day
NOEL (Rattus norvegicus [3]; [10]): 1 mg/kg-day

C=Cc1ccc(S(=O)(=O)[O-])cc1.[Na+] [Sodium 4-vinylbenzenesulfonate]
LOEL (Rattus norvegicus [3]; [11]): 1000 mg/kg-day
NOEL (Rattus norvegicus [3]; [11]): 300 mg/kg-day
LOEL (Rattus norvegicus [3]; [12]): 300 mg/kg-day
NOEL (Rattus norvegicus [3]; [12]): 100 mg/kg-day

O=C([O-])[C@H](O)[C@@H](O)[C@H](O)[C@H](O)CO.[Na+] [Sodium D-gluconate]
NOAEL (Rattus norvegicus [3]; short-term, duration: 28 days, diet, CD(SD)): 4100 mg/kg-day
NOAEL (Rattus norvegicus [3]; short-term, duration: 28 days, diet, Sprague-Dawley): 5%
NOAEL (Rattus norvegicus [3]; short-term, duration: 28 days, gavage, M, CD(SD), Histopathology: Stomach: Thickening of the limiting ridge): 1000 mg/kg-day
NOAEL (Rattus norvegicus [3]; short-term, duration: 28 days, gavage, M, CD(SD), Histopathology: Stomach: Thickening, limiting ridge): 1000 mg/kg-day

CC(C)(C)C(O)(CCc1ccc(Cl)cc1)Cn1cncn1 (configuration not stated) [Tebuconazole]
NOEL (Rattus norvegicus [3]; short-term, duration: 28 days, gavage, M/F, Clinical Observation: Coma Polyuria + Body Weight Changes: Body weight gain decrease + Hematology: WBC increase, Seg% increase + Blood …): 30 mg/kg-day

CC(=O)CC/C=C(\C)CC/C=C(\C)CC/C=C(\C)CCC=C(C)C [Teprenone]
NOEL (Rattus norvegicus [3]; subchronic, gavage, M/F, Sprague-Dawley, Clinical Observation: Oily fur Unkempt fur Loss of fur Diarrhea + Body Weight Changes: decrease + Urinalysis: Cl increase, Ketone + …): 62.5 mg/kg-day

CC(C)(c1cc(Br)c(OCC(Br)CBr)c(Br)c1)c1cc(Br)c(OCC(Br)CBr)c(Br)c1 (configuration not stated) [Tetrabromobisphenol A-bis(2,3-dibromopropyl ether)]
NOEL (Rattus norvegicus [3]; [13]): 1000 mg/kg-day

OCC1CCCO1 (configuration not stated) [Tetrahydrofurfuryl alcohol]
NOEL (Rattus norvegicus [3]; short-term, duration: 28 days, gavage, M/F, Sprague-Dawley, Clinical Observation: Locomotor activity increase, Locomotor activity decrease, Prone position + Functional Observational Battery: Grip …): 40 mg/kg-day

Nc1nn[nH]n1 [Tetrazol-5-ylamine]
NOEL (Rattus norvegicus [3]; subchronic, gavage, M, Sprague-Dawley, Blood Chemistry: BUN increase): 200 mg/kg-day

[Cl-].[Cl-].[Ti+4].c1cc[cH-]c1.c1cc[cH-]c1 [Titanocene dichloride]
NOEL (Rattus norvegicus [3]; subchronic, duration: 13 weeks, gavage, M/F, Fischer 344, Deaths + Body Weight Changes: decrease + Absolute Organ Weight: Liver increase, Thymus decrease + Relative Organ Weight: kidney increase, …): < 8 mg/kg-day

[CH3][Sn]([Cl])([Cl])[Cl] [Trichloromethylstannane]
NOAEL (Rattus norvegicus [3]; subchronic, duration: 90 days, diet, M/F, Wistar, Food Consumption: increase + Urinalysis: Volume increase, Specific gravity decrease, pH increase, Crystals increase + Hematology: RBC …): 14.4 mg/kg-day

CCCCCCCC[Si](OCC)(OCC)OCC [Triethoxyoctylsilane]
NOAEL (Rattus norvegicus [3]; short-term, duration: 28 days, diet, Fischer 344): 10000 ppm
NOAEL (Rattus norvegicus [3]; short-term, duration: 29 days, gavage, M/F, Sprague-Dawley, Clinical Observation: Soiling of the head (nose, chin, muzzle) + Body Weight Changes: Mean body weight decrease, Weight gain decrease + Food…): 300 mg/kg-day

CO[Si](CCCOCC1CO1)(OC)OC (configuration not stated) [Trimethoxy[3-(oxiran-2-ylmethoxy)propyl]silane]
NOAEL (Rattus norvegicus [3]; short-term, duration: 28 days, gavage, Sprague-Dawley, Deaths: None (there were dead animals due to intubation error)): > 1000 mg/kg-day

O=P(OCCCl)(OCCCl)OCCCl [Tris(2-chloroethyl) phosphate]
NOAEL (Rattus norvegicus [3]; [14]): 400 mg/kg-day
NOEL (Rattus norvegicus [3]; [14]): 80 mg/kg-day

S=c1[nH]c(=S)[nH]c(=S)[nH]1 [Trithiocyanuric acid]
NOEL (Rattus norvegicus [3]; subchronic, gavage, M, Sprague-Dawley, Deaths + Clinical Observation: Black area of the pinna Nodule of the tail Dark purple distally of the tail Reddish urine + Body Weight …): < 62.5 mg/kg-day

C=CN1CCCC1=O [Vinylpyrrolidone]
NOAEL (Rattus norvegicus [3]; subchronic, duration: 90 days, drinking water, M/F, Wistar, Water Consumption: decrease + Blood Chemistry: TP decrease, Glob decrease, Alb decrease + Absolute Organ Weight: Kidney increase): 4.56 mg/kg-day
NOAEL (Rattus norvegicus [3]; subchronic, duration: 90 days, gavage, M/F, Wistar, Food Consumption: decrease + Water Consumption: increase + Hematology: PLT increase + Absolute Organ Weight: Liver increase + Histopathology…): 60 mg/kg-day

[O-][n+]1ccccc1[S-].[O-][n+]1ccccc1[S-].[Zn+2] [Zinc pyrithione]
NOEL (Rattus norvegicus [3]; [13]): 1 mg/kg-day

CC1CC(C)(C)CC(c2ccc(O)cc2)(c2ccc(O)cc2)C1 (configuration not stated) [bisphenol TMC]
NOEL (Rattus norvegicus [3]; short-term, duration: 28 days, gavage, M/F, Body Weight Changes: Weight gain decrease + Food Consumption: decrease + Water Consumption: increase + Urinalysis: Protein increase + …): < 100 mg/kg-day

O=C1CCCO1 [gamma-Butyrolactone]
NOEL (Rattus norvegicus [3]; subchronic, duration: 13 weeks, gavage, M/F, Fischer 344, Clinical Observation: Slight inactivity Recumbent + Body Weight Changes: decrease + Absolute Organ Weight: Thymus decrease + Relative Organ …): 112 mg/kg-day

Cc1ccc(S(=O)(=O)Cl)cc1 [p-Toluenesulfonyl chloride]
NOAEL (Rattus norvegicus [3]; subchronic, duration: 51 days, gavage, M, Sprague-Dawley, Clinical Observation: Soft stool Staining around anorectal region Staining around mouth Staining around nose(blood like) Loss of hair around…): < 150 mg/kg-day
